Results reported in ChEMBL document CHEMBL1156193, “Discovery of a long-acting, peripherally selective inhibitor of catechol-O-methyltransferase” (2010).

Key:
[1] = target: T1, Catechol O-methyltransferase (Rattus norvegicus) (UniProt P22734); test: Inhibition of COMT in rat liver homogenates assessed as metanephrine formation at 30 uM relative to control; values are per cent of control
T1 sequence (whole entry): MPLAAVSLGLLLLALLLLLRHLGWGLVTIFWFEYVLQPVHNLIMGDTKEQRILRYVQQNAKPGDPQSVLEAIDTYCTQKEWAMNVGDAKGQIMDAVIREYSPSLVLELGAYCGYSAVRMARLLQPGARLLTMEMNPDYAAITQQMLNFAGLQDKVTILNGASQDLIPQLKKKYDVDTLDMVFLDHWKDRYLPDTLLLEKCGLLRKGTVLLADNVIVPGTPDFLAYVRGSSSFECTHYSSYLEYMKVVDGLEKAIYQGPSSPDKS

[2] = Cytotoxicity against mouse Neuro2a cells assessed as cell viability at 30 uM after 24 hrs; assay type: functional; settings: N2a, read-out: Activity
Rattus norvegicus [3] = test: Inhibition of COMT in Wistar rat liver homogenates assessed as metanephrine formation at 3 mg/kg, po measured after 3 hrs relative to control; values are per cent of control
Mus musculus [4] = test: Inhibition of COMT in NMRI mouse liver homogenates assessed as metanephrine formation at 30 mg/kg, po measured after 6 hrs relative to control; values are per cent of control
Mus musculus [5] = test: Inhibition of COMT in NMRI mouse liver homogenates assessed as metanephrine formation at 3 mg/kg, po measured after 3 hrs relative to control; values are per cent of control
[6] = target: T1, Catechol O-methyltransferase (Rattus norvegicus); test: Inhibition of COMT in rat liver homogenates assessed as metanephrine formation at 3 uM relative to control; values are per cent of control
Rattus norvegicus [7] = test: Inhibition of COMT in Wistar rat brain homogenates assessed as metanephrine formation at 3 mg/kg, po measured after 3 hrs relative to control; values are per cent of control

| Structure (SMILES) | viability at 30 µM [2] [%] | level, % of control at 3 mg/kg (Rattus norvegicus [3]) [%] | further results |
| --- | --- | --- | --- |
| O=C(O)c1cc(-c2ccnn2-c2cccc(Cl)c2)cc(O)c1O |  |  | residual activity [1]: 24.1% |
| O=[N+]([O-])c1cc(-c2nc(-c3ccc(C(F)(F)F)[n+]([O-])c3)no2)cc(O)c1O | 87 | 34.4 |  |
| O=[N+]([O-])c1cc(-c2cncn2-c2ccccc2)cc(O)c1O |  |  | level, % of control at 30 mg/kg (Mus musculus [4]): 109% |
| O=[N+]([O-])c1cc(-c2nc(N3CCN(c4ccccn4)CC3)no2)cc(O)c1O | 24.6 |  | level, % of control at 3 mg/kg (Mus musculus [5]): 32.2% |
| Cc1[nH]nc(-c2ccc(O)c(O)c2O)c1-c1ccc(Cl)cc1 |  |  | residual activity [6]: 15.6% |
| O=[N+]([O-])c1cc(-c2nc(-c3ccc[n+]([O-])c3Cl)no2)cc(O)c1O | 93.7 | 71.6 |  |
| Cc1nc(-c2noc(-c3cc(O)c(O)c([N+](=O)[O-])c3)n2)cs1 | 58.7 |  | level, % of control at 3 mg/kg (Mus musculus [5]): 22.9% |
| Cc1c(-c2noc(-c3cc(O)c(O)c([N+](=O)[O-])c3)n2)c(C(F)(F)F)cc(-c2ccccc2)[n+]1[O-] | 26.6 | 24.3 |  |
| O=[N+]([O-])c1cc(-c2nc(-c3ccc(F)cc3)no2)cc(O)c1O | 29.5 |  | level, % of control at 3 mg/kg (Mus musculus [5]): 12.7% |
| O=[N+]([O-])c1cc(-c2nc(-c3cnccc3C(F)(F)F)no2)cc(O)c1O | 14.7 |  |  |
| Cc1ccc(-c2noc(-c3cc(O)c(O)c([N+](=O)[O-])c3)n2)c(Br)[n+]1[O-] | 76.3 | 33.7 |  |
| Oc1ccc(-c2ccnn2-c2ccc(C(F)(F)F)cc2)c(F)c1O |  |  | residual activity [1]: 32.3% |
| Cc1ccc(-c2noc(-c3cc(O)c(O)c([N+](=O)[O-])c3)n2)c(N2CCOCC2)n1 | 43.8 |  |  |
| Cc1ccc(-n2nccc2-c2ccc(O)c(O)c2)cc1 |  |  | residual activity [1]: 41.2% |
| Cc1cc(-c2noc(-c3cc(O)c(O)c([N+](=O)[O-])c3)n2)on1 | 27.6 |  |  |
| O=[N+]([O-])c1cc(-c2nnc(-c3ccccc3)o2)cc(O)c1O |  | 67.8 | level, % of control at 3 mg/kg (Rattus norvegicus [7]): 87.9%; level, % of control at 30 mg/kg (Mus musculus [4]): 47.3% |
| O=[N+]([O-])c1cc(-c2nc(-c3ccc[n+]([O-])c3)no2)cc(O)c1O | 93.8 | 77 |  |
| O=[N+]([O-])c1cc(-c2nc(-c3ccncc3)no2)cc(O)c1O | 27.3 |  |  |
| O=[N+]([O-])c1cc(-c2nc(-c3cccnc3)no2)cc(O)c1O | 26.7 |  |  |
| O=[N+]([O-])c1cc(-c2noc(-c3ccccc3)n2)cc(O)c1O |  | 51.9 | level, % of control at 3 mg/kg (Rattus norvegicus [7]): 55.6%; level, % of control at 30 mg/kg (Mus musculus [4]): 24.4% |
| Cc1cc(C)[n+]([O-])c(Cl)c1-c1noc(-c2cc(O)c(O)c([N+](=O)[O-])c2)n1 | 92.3 | 13.9 |  |
| Oc1ccc(-c2ccnn2-c2ccccc2)c(O)c1O |  |  | residual activity [1]: 26.8% |
| Cc1cc(C(F)(F)F)c(-c2noc(-c3cc(O)c(O)c([N+](=O)[O-])c3)n2)c(C)[n+]1[O-] | 37.2 | 1.3 |  |
| O=[N+]([O-])c1cc(-c2nc(-c3ccc(Cl)c(Cl)c3)no2)cc(O)c1O | 37.7 |  | level, % of control at 3 mg/kg (Mus musculus [5]): 8.8% |
| O=[N+]([O-])c1cc(-c2nc(-c3ccccn3)no2)cc(O)c1O | 70.5 |  |  |
| O=[N+]([O-])c1cc(-c2nc(-c3ccccc3)no2)cc(O)c1O | 43.1 | 20.6 | level, % of control at 3 mg/kg (Rattus norvegicus [7]): 71.7%; level, % of control at 30 mg/kg (Mus musculus [4]): 7%; level, % of control at 3 mg/kg (Mus musculus [5]): 20.6% |
| O=[N+]([O-])c1cc(-c2nc(-c3cccs3)no2)cc(O)c1O | 19.3 |  | level, % of control at 3 mg/kg (Mus musculus [5]): 29.6% |
